Assay [1] has as its target T1, hFASN enzyme (full length) (Homo sapiens, UniProt P49327).
T1 construct: 10 μL hFASN enzyme (full length, 300 ng, purified in house); made in house
The assay can be described thus: Fatty Acid Synthase (FASN) Inhibition Scintillation Proximity Assay. The class given is biochemical. As to conditions: for pIC50: mean where tested more than once, ~ = standard error of pIC50 larger than 0.5; for inhibition at 10 µM: read-out: FASN % Effect @1E−05M. How it is done: In this assay, inhibition of FASN activity is measured using ^3H-acetyl-CoA and malonyl-CoA as substrates. ^3H-Acetyl CoA is converted to ^3H-palmitate through a series of reactions by the FASN protein, which contains 7 functional domains and carries out 7 enzymatic reactions to ultimately produce ^3H-palmitate. The assay principle is based upon the fact that ^3H-acetyl-CoA is hydrophilic and the end product, ^3H-palmitate is hydrophobic.
10 μL assay buffer (100 mM KH2PO4 pH 7.5, 1 mM DTT) (20 μL in blanks) was added to a 384-well white Opti Plate plate (Perkin Elmer). 0.9 μL test compound (at concentrations of 30 μM, 10 μM, 3 μM, 1 μM, 0.30 μM, 0.10 μM, 0.03 μM and 0.01 μM)/DMSO and 10 μL hFASN enzyme (full length, 300 ng, purified in house) or 10 μL assay buffer was added to the wells. Then 10 μL 450 μM NADPH (Sigma N7505), 18.75 μM [^3H]-acetyl-CoA (Perkin Elmer NET-290L), 150 μM malonyl-CoA (Sigma M4263) were added, mixed and incubated at room temperature for 60 minutes. The reaction was stopped by adding 20 μL Streptavidin coupled imaging beads (25 mg/ml). After incubation for 30 minutes at room temperature in the dark, the 384 well plate was centrifuged at 1500 rpm for 3 minutes and was measured after at least 24 hrs by the LEADseeker™, measuring emission using a 610±20 nm pass filter. (Bays, N. W., et al., “A simplified scintillation proximity assay for fatty acid synthase activity: development and comparison with other FAS activity assays”, J. Biomol. Screen, 2009, pp 636-642, Vol. 14(6).)
(§1) Raw data generated by the instrument were normalized to % Controlmin values, which were calculated as: % Controlmin=100*(x−mLC)/(mHC−mLC)
(§2) where mLC and mHC were the means of the low control wells and high control wells on the plate, after manual exclusion of outliers. A plot of Controlmin versus test compound concentration was fitted to a 4-parameter logistic curve using a non-linear least squares regression method. From the plot, an IC50 (concentration at which 50% inhibition is achieved) was calculated. pIC50 values were calculated as −log(IC50), when IC50 is expressed in molar units.

Assay [2] deals with T2, FASN Keto-reductase Domain (Homo sapiens, UniProt P49327).
T2 construct: 10 μL hFASN enzyme (full length, 300 ng, purified in house) and 360 μM NADPH; made in house
The assay can be described thus: Fatty Acid Synthase Keto-Reductase Domain (FASN KR) Inhibition. The class given is biochemical. As to conditions: mean where tested more than once; read-out: FASN K-R Domain pIC50 (converted). How it is done:
10 μL assay buffer (100 mM KH2PO4 pH 7.5) was added to a 384-well clear plate (costar 3702). 0.3 μL compound (at concentrations of 30 μM, 10 μM, 3 μM, 1 μM, 0.30 μM, 0.10 μM, 0.03 μM and 0.01 μM)/DMSO, 10 μL hFASN enzyme (full length, 300 ng, purified in house) and 360 μM NADPH (except in blank) were then added. Then, 10 μL 180 mM ethyl acetoacetate (Aldrich 688983) was added, mixed and immediately thereafter, the absorbance at 340 nm (T1) by Multiscan (Labsystems) was measured. After 20 minutes incubation at room temperature the plate was measured again (T2).
The decrease in absorbance was calculated as (Absorbance before incubation T1)−(Absorbance following incubation T2).
as §1, §2

pIC50: −log10 of the molar value.

T2 sequence (P49327 whole entry, the tested form may be a part): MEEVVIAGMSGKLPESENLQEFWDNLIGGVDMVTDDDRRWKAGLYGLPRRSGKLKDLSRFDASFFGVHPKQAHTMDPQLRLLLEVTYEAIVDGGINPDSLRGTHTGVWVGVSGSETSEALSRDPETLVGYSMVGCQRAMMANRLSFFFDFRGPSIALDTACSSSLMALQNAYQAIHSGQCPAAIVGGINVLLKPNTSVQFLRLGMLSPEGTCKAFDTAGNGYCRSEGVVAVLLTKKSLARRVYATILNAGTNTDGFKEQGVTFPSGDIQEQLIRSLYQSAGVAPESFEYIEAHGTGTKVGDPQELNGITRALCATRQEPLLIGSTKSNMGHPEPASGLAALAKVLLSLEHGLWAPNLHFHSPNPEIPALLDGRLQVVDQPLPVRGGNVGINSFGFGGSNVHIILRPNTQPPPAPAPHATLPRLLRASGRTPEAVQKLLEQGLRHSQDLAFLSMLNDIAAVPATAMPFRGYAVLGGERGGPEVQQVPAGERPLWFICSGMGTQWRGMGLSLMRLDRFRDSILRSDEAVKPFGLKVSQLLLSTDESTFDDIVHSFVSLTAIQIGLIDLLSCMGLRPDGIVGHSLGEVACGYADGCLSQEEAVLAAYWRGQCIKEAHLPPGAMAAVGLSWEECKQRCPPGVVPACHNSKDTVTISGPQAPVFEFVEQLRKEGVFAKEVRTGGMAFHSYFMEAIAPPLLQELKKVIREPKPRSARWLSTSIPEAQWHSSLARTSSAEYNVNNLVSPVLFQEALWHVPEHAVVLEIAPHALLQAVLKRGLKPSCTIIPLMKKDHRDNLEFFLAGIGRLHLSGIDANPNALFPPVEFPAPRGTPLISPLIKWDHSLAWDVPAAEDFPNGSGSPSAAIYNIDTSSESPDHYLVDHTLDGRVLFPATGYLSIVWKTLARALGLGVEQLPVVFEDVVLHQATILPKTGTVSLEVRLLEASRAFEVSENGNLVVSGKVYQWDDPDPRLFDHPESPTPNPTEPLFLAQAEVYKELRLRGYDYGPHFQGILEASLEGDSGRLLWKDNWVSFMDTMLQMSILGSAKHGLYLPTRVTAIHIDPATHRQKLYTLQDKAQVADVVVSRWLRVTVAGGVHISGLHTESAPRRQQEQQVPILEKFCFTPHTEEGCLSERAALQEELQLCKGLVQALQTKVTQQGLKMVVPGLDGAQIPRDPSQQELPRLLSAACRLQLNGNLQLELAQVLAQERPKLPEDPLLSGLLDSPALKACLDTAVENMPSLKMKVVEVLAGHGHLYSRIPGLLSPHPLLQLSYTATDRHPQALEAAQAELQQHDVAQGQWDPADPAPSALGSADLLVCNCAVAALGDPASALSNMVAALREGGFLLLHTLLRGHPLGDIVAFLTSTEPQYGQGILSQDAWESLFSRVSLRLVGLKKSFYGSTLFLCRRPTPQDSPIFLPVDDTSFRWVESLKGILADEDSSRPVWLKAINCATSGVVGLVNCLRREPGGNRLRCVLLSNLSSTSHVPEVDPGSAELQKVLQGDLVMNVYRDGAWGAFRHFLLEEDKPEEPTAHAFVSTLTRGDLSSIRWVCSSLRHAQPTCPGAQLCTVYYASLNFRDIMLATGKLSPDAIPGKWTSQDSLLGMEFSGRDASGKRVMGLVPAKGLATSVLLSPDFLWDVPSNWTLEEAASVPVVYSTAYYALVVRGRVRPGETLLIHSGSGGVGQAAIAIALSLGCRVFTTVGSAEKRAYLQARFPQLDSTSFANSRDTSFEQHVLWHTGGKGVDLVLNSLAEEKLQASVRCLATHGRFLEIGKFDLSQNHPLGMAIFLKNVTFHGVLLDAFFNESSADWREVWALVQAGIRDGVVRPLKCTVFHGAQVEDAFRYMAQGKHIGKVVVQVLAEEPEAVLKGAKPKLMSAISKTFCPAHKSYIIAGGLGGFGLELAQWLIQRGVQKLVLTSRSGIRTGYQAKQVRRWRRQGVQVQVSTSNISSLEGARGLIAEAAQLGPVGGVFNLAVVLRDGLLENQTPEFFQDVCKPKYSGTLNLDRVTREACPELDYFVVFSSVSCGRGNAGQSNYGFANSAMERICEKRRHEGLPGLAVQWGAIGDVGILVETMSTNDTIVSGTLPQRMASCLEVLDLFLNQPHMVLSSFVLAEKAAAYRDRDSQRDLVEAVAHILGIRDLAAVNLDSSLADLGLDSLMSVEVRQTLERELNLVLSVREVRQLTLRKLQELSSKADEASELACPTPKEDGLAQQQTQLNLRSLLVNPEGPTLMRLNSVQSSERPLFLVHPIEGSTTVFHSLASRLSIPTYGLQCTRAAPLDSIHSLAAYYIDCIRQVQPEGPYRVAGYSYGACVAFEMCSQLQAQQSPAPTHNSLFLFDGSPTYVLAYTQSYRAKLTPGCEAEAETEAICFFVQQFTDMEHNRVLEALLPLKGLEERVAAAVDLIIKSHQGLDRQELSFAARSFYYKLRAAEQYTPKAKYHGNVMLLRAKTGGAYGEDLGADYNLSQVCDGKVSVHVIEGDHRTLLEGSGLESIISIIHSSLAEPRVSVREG
T1 sequence (P49327 whole entry): as the sequence (P49327 whole entry, the tested form may be a part) above

For orientation: pIC50 means the IC50 on a negative log10 scale, so that one unit is a factor of ten. As to `Cc1ccc(-c2ccc(C3CCN(C(=O)c4ccc(C)c(NC(=O)c5ccc(NC(C)C)nc5)c4)CC3)cc2)cc1` [Compound 234, 6-(isopropylamino)-N-(2-methyl-5-(4-(4′-methyl-[1,1′-biphenyl]-4-yl)piperidine-1-carbonyl)phenyl)nicotinamide], in assay [1], the pIC50 was ~5.70 and the inhibition at 10 µM turned out to be 63%.

For `COCCN(C(=O)C1CC1)c1ccc(C(=O)N2CCC(c3ccc(-c4cnn(C)c4)cc3)CC2)cc1NC(=O)C1CC1` [Compound 291, N-(2-(cyclopropanecarboxamido)-4-(4-(4-(1-methyl-1H-pyrazol-4-yl)phenyl)piperidine-1-carbonyl)phenyl)-N-(2-methoxyethyl)cyclopropanecarboxamide], the pIC50 in assay [1] was < 5.00.

For `Cc1ccc(C(=O)N2CCC(c3ccc4ncsc4c3)CC2)cc1NC(=O)c1ccc(NC(C)C)nc1` [Compound 46, N-(5-(4-(benzo[d]thiazol-6-yl)piperidine-1-carbonyl)-2-methylphenyl)-6-(isopropylamino)nicotinamide], in assay [1], the pIC50 is 5.64 and the inhibition at 10 µM amounted to 74%.

On to `Cc1ccc(C(=O)N2CCC(c3ccc4nncn4c3)CC2)cc1NC(=O)c1ccc(NC(C)C)nc1` [Compound 20, N-(5-(4-([1,2,4]triazolo[4,3-a]pyridin-6-yl)piperidine-1-carbonyl)-2-methylphenyl)-6-(isopropylamino)nicotinamide], for which, in assay [1], the pIC50 was ~4.52 and the inhibition at 10 µM was determined as 30%.

With `Cc1ccc(C(=O)N2CCC(c3ccc4c(c3)C(C)N(C)C4=O)CC2)cc1NC(=O)c1ccc(NC(C)C)nc1` (stereo not shown) [Compound 22, N-(5-(4-(2,3-dimethyl-1-oxoisoindolin-5-yl)piperidine-1-carbonyl)-2-methylphenyl)-6-(isopropylamino)nicotinamide], in assay [1], the pIC50 is 5.31 and the inhibition at 10 µM is 60%. For the same compound, in assay [2], the IC50 was 7.94 µM.

With `Cc1ccc(C(=O)N2CCC(c3ccc(-c4cnn(C)c4)cc3)CC2)cc1NC(=O)c1nccn1C` [Compound 227, 1-methyl-N-(2-methyl-5-(4-(4-(1-methyl-1H-pyrazol-4-yl)phenyl)piperidine-1-carbonyl)phenyl)-1H-imidazole-2-carboxamide], in assay [1], the pIC50 was 5.61 and the inhibition at 10 µM stood at 63%.

`Cc1ccc(C(=O)N2CCC(c3ccc4c(c3)C(C)N(C)C4=O)CC2)cc1NC(=O)c1ccc(Cl)nc1` (stereo not shown) [Compound 21, 6-chloro-N-(5-(4-(2,3-dimethyl-1-oxoisoindolin-5-yl)piperidine-1-carbonyl)-2-methylphenyl)nicotinamide]: in assay [1], the pIC50 is 4.56 and the inhibition at 10 µM is 22%. Further, the IC50 in assay [2] is 13.2 µM.

As to `CN(C(=O)C1CC1)c1ccc(C(=O)N2CCC(c3ccc(-c4cnn(C)c4)cc3)CC2)cc1NC(=O)C1CC1` [Compound 277, N-(2-(cyclopropanecarboxamido)-4-(4-(4-(1-methyl-1H-pyrazol-4-yl)phenyl)piperidine-1-carbonyl)phenyl)-N-methylcyclopropanecarboxamide], in assay [1], the pIC50 is 5.35 and the inhibition at 10 µM turned out to be 62%.

`Cc1ccc(C(=O)N2CCC(c3ccc(-c4cnn(C)c4)cc3)CC2)cc1NC(=O)c1ccc(N2CCN[C@H](CO)C2)nc1` [Compound 164, (3S)-6-(3-(hydroxymethyl)piperazin-1-yl)-N-(2-methyl-5-(4-(4-(1-methyl-1H-pyrazol-4-yl)phenyl)piperidine-1-carbonyl)phenyl)nicotinamide]: in assay [1], the pIC50 was 7.68 and the inhibition at 10 µM was determined as 110%. Besides, the IC50 in assay [2] was 0.0417 µM.

For the compound `Cc1ccc(C(=O)N2CCC(c3ccc4nncn4c3)CC2)cc1NC(=O)c1ccc(Cl)nc1` [Compound 18, N-(5-(4-([1,2,4]triazolo[4,3-a]pyridin-6-yl)piperidine-1-carbonyl)-2-methylphenyl)-6-chloronicotinamide], in assay [1], the pIC50 is < 4.52 and the inhibition at 10 µM turned out to be 2%. In assay [2], the IC50 is > 30.2 µM.

`Cc1ccc(C(=O)N2CC(O)(c3ccc(-c4ccnn4C)cc3)C2)cc1NC(=O)c1ccc(Cl)nc1` [Compound 107, 6-chloro-N-(5-(3-hydroxy-3-(4-(1-methyl-1H-pyrazol-5-yl)phenyl)azetidine-1-carbonyl)-2-methylphenyl)nicotinamide]: in assay [1], the pIC50 was < 5.00 and the inhibition at 10 µM came to 41%.

For `Cc1ccc(C(=O)N2CCC(c3ccc4ncsc4c3)CC2)cc1NC(=O)c1ccc(Cl)nc1` [Compound 47, N-(5-(4-(benzo[d]thiazol-6-yl)piperidine-1-carbonyl)-2-methylphenyl)-6-chloronicotinamide], in assay [1], the pIC50 was ~5.11 and the inhibition at 10 µM is 60%.

For `Cc1ccc(C(=O)N2CCC(c3ccc(-c4cnn(C)c4)cc3)CC2)cc1NC(=O)c1nc(C(C)(C)C)cs1` [Compound 229, 4-(tert-butyl)-N-(2-methyl-5-(4-(4-(1-methyl-1H-pyrazol-4-yl)phenyl)piperidine-1-carbonyl)phenyl)thiazole-2-carboxamide], in assay [1], the pIC50 is 5.39 and the inhibition at 10 µM was determined as 61%.

With `Cc1ccc(C(=O)N2CCC(c3ccc4nccn4c3)CC2)cc1NC(=O)c1ccc(NC(C)C)nc1` [Compound 17, N-(5-(4-(imidazo[1,2-a]pyridin-6-yl)piperidine-1-carbonyl)-2-methylphenyl)-6-(isopropylamino)nicotinamide], in assay [1], the negative logarithm of the IC50 (pIC50) is ~4.89 and the inhibition at 10 µM was 51%. In assay [2], the IC50 was 8.13 µM.

For the compound `Cc1ccc(C(=O)N2CCC(c3ccc4nccn4c3)CC2)cc1NC(=O)c1ccc(Cl)nc1` [Compound 14, 6-chloro-N-(5-(4-(imidazo[1,2-a]pyridin-6-yl)piperidine-1-carbonyl)-2-methylphenyl)nicotinamide], in assay [1], the pIC50 is < 4.52 and the inhibition at 10 µM was 30%. The IC50 in assay [2] was 17 µM.

For the compound `Cc1ccc(C(=O)N2CCC(c3ccc4c(c3)CN(C)C4=O)CC2)cc1NC(=O)c1ccc(NC(C)C)nc1` [Compound 19, 6-(isopropylamino)-N-(2-methyl-5-(4-(2-methyl-1-oxoisoindolin-5-yl)piperidine-1-carbonyl)phenyl)nicotinamide], in assay [1], the pIC50 is 5.18 and the inhibition at 10 µM is 50%. In assay [2], the IC50 is 5.5 µM.

On to `Cc1ccc(C(=O)N2CC(c3ccc(-c4cnn(C)c4)cc3)C2)cc1NC(=O)C1CCCC1` [Compound 226, N-(2-methyl-5-(3-(4-(1-methyl-1H-pyrazol-4-yl)phenyl)azetidine-1-carbonyl)phenyl)cyclopentanecarboxamide], for which, in assay [1], the pIC50 was < 5.00 and the inhibition at 10 µM was 17%.

Source of the values: patent US9562035B2, “Benzamide derivative useful as FASN inhibitors for the treatment of cancer” (Janssen Pharmaceutica NV, priority 2013, dated 2017).
